Experimental data: patent US9682960B2 (priority 2013, dated 2017)
Values joined by “and” are separate entries in the source; they are usually repeats but may differ in a detail not shown here. Equal entries are not always repeated. Where two headings read alike, the source gives them in different places.

Legend:
[1] = tested on: Shionogi mouse mammary carcinoma cells; test: In vitro androgenic/antiandrogenic activity: proliferation of Shionogi cells with or without DHT; format: cell-based; details: for IC50: Mus musculus
Human Androgen Receptor = Human Androgen Receptor (Homo sapiens (Human), UniProt P10275); test: Androgen receptor assay: [3H]R1881 displacement, cytosol of HEK-293 cells transfected with hAR (hydroxylapatite assay); format: binding; details: for Human Androgen Receptor Binding RBA (%) R1881 = 100: relative binding affinity; for times more potent than OH-flutamide on the human AR (RBA ratio): versus hydroxyflutamide
[2] = tested on: castrated (CX) immature male rats; test: Systemic androgenic (agonistic) activity in orchidectomized (CX) immature male rats; format: in vivo, rat
Experimental: Immature male rats (Crl:CD(SD)Br) 22 to 24-day old weighting 60-80 g at start of treatment were obtained from Charles-River, Inc. (St-Constant, Quebec, Canada) and housed up to 5 per cage in plastic bins in a temperature (23±1° C.)- and light (12 h light/day, lights on at 7 h15)-controlled environment. The rats were fed rodent chow and tap water ad libitum. […] The day following their arrival, the designed animals were orchidectomized (CX) under Isoflurane anesthesia (Study Day 1) via the scrotal route and were then randomly assigned to groups of 3 to 5 animals. At the time of orchidectomy, one silastic implant of dihydrotestosterone (DHT; 1 cm length of pure DHT in silastic tubing having inner and outer diameter of 0.078 and 0.125 inches, respectively), was inserted subcutaneously in the dorsal area of animals assigned to the evaluation of antiandrogenic activity. In the case of intact animal experiments, the orchidectomy and the silastic implant installation are omitted.
Tested compounds were administered orally once daily for 7 days from Study Day 2 to Study Day 8 at doses generally ranging from 0.1 and 0.5 mg/animal. Compounds were either solubilized in dimethylsulfoxide (DMSO, 10% final concentration) and were administered as a solution/suspension in 0.9% NaCl-1% gelatin or were administered as suspensions in 0.4% aqueous methylcellulose. Animals of the control groups received the corresponding vehicle alone during the 7-day period. Some animals were treated with the antiandrogen Flutamide or Casodex as reference. The animals under isoflurane anesthesia were killed by cervical dislocation on day 9 of the study, approximately 24 h after the last dosing. The ventral prostate, seminal vesicles and bulbocavernosus muscles were rapidly dissected and weighed.
For calculations with intact animals, control DHT is replaced by control intact and the % stimulation is subtracted by 100%. W is the weight of the prostate, seminal vesicles or bulbocavernosus muscles. Discussion

[3] = read-out: Shionogi Antiandrogenic Activity IC50, DHT (0.3 nM)-stimulated cell number
[4] = 0.1 mg/rat/po, 7 days, bulbocavernosus muscles weight
[5] = 0.1 mg/rat/po, 7 days, seminal vesicles weight
[6] = 0.1 mg/rat/po, 7 days, ventral prostate weight

Chain of Human Androgen Receptor (P10275 whole entry): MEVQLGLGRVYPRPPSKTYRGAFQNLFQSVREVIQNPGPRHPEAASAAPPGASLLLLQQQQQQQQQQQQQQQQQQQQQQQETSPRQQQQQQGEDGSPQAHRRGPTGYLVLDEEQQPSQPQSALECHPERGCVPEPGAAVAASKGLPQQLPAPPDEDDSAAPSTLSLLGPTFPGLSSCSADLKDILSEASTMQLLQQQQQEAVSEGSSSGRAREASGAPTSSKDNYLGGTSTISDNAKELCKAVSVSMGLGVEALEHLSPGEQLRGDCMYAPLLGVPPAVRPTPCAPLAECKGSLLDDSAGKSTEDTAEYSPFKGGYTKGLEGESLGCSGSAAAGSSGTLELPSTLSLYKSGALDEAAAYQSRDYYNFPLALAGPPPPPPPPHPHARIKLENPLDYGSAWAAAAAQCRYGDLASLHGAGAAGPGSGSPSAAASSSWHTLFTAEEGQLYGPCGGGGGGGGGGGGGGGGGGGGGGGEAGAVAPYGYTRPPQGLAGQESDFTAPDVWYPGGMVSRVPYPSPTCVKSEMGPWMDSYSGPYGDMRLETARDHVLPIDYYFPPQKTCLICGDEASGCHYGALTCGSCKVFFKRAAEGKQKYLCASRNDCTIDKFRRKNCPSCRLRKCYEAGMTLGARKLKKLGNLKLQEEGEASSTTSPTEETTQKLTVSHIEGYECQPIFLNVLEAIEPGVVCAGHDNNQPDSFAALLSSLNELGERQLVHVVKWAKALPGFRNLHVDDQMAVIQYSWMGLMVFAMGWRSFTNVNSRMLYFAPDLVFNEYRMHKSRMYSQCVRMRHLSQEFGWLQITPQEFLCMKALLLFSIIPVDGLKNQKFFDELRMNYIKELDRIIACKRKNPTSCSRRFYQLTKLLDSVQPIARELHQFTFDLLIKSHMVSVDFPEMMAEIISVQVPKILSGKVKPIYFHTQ

Structure (SMILES)	IC50 [1, 3] [nM]	Human Androgen Receptor Binding RBA (%) R1881 = 100 (Human Androgen Receptor; […])	CX Agonistic activity % Stimulation Bulbo [2, 4]	CX Agonistic activity % Stimulation SV [2, 5]	CX Agonistic activity % Stimulation Prostate [2, 6]	IC50 ([1]; DHT (0.3 nM)-stimulated cell number, read-out: Shionogi Antiandrogenic Activity IC50) [nM]	Human Androgen Receptor Binding RBA (%) R1881 = 100 (Human Androgen Receptor; transfected cells) [%]	stimulation at 10^−7M on basal Shionogi cell proliferation (in words) ([1]; basal (no DHT), 10^−7M)	CX Agonistic activity % Stimulation Bulbo ([2]; 0.02 mg/rat po)	CX Agonistic activity % Stimulation Prostate ([2]; 0.02 mg/rat po)	CX Agonistic activity % Stimulation SV ([2]; 0.02 mg/rat po)	times more potent than OH-flutamide on the human AR (RBA ratio) (Human Androgen Receptor) [times]	% of stimulation at 10^−7M on basal Shionogi cells ([1]; basal (no DHT), 10^−7M) [%]
Cc1c(N2C(=O)C(C)(C)N(CCCOc3ccc(-c4ccncc4)nc3)C2=S)ccc(C#N)c1Cl [EM-8827]	118 ± 14	113%	133%	38%	41%	–	–	–	–	–	–	–	–
Cc1c(N2C(=O)C(C)(C)N(CCCOc3ccc(Oc4ccc(Cl)nc4)nc3)C2=S)ccc(C#N)c1Cl [EM-8828]	96.5	112%	161%	31%	40%	–	–	–	–	–	–	–	–
Cc1c(N2C(=O)C(C)(C)N(CCCOc3ccc4cnccc4c3)C2=S)ccc(C#N)c1Cl [EM-8869]	–	–	101%	18%	31%	~1000	56	–	–	–	–	–	–
Cc1c(N2C(=O)C(C)(C)N(CCCOc3ccc(-c4ccncc4)c(Cl)c3)C2=S)ccc(C#N)c1Cl [EM-8887]	133	1890 ± 1040 (n = 2) %	214%	107%	55%	–	–	–	–	–	–	–	–
Cc1c(N2C(=O)C(C)(C)N(CCCOc3ccc(-c4cc[n+]([O-])cc4)cc3)C2=S)ccc(C#N)c1Cl [EM-8913]	> 100	114%	160%	65%	54%	–	–	–	–	–	–	–	–
Cc1c(N2C(=O)C(C)(C)N(CCCOc3ccc(-c4ccnc(F)c4)cc3)C2=S)ccc(C#N)c1Cl [EM-8922]	79	414%	134%	54%	52%	–	–	–	–	–	–	–	–
Cc1c(N2C(=O)C(C)(C)N(CCCOc3ccc(-c4ccncc4)c(C#N)c3)C2=S)ccc(C#N)c1Cl [EM-8933]	110	134%	136%	43%	46%	–	–	–	–	–	–	–	–
Cc1c(N2C(=O)C(C)(C)N(CCCOc3ccc(-c4ccncc4F)cc3)C2=S)ccc(C#N)c1C(F)(F)F [EM-8974]	112	41.9%	139%	24%	61%	–	–	–	–	–	–	–	–
Cc1c(N2C(=O)C(C)(C)N(CCCOc3ccc(-c4ccncc4Cl)cc3)C2=S)ccc(C#N)c1Cl [EM-8977]	100	89.8%	194%	65%	72%	–	–	–	–	–	–	–	–
CC1(C)C(=O)N(c2ccc(C#N)c(C(F)(F)F)c2)C(=S)N1CCCOc1ccc2ncccc2c1 [EM-8990]	9.7	53.6%	3%	1%	0%	–	–	–	–	–	–	–	–
CC1(C)C(=O)N(c2ccc(C#N)c(C(F)(F)F)c2)C(=S)N1CCCOc1ccc2cccnc2c1 [EM-8991]	38.5	28.5%	1%	2%	2%	–	–	–	–	–	–	–	–
Cc1c(N2C(=O)C(C)(C)N(CCCOc3ccc(-c4ccc(N(C)C)nc4)cc3)C2=S)ccc(C#N)c1Cl [EM-8993]	59.5	–	123%	61%	50%	–	4.8	–	–	–	–	–	–
Cc1c(N2C(=O)C(C)(C)N(CCCOc3ccc(-c4ccc(N(C)C)nc4)c(F)c3)C2=S)ccc(C#N)c1Cl [EM-8996]	100	–	131%	53%	49%	–	48.9	–	–	–	–	–	–
CC1(C)C(=O)N(c2ccc(C#N)c(C(F)(F)F)c2)C(=S)N1CCCOc1ccc2ncncc2c1 [EM-9010]	10	29.5%	5%	0%	0%	–	–	–	–	–	–	–	–
CC1(C)C(=O)N(c2ccc(C#N)c(C(F)(F)F)c2)C(=S)N1CCCOc1ccc2cnccc2c1 [EM-9021]	5	166.8%	9%	0%	1%	–	–	–	–	–	–	–	–
CC1(C)C(=O)N(c2ccc(C#N)c(C(F)(F)F)c2)C(=S)N1CCCOc1ccc2c(ccc[n+]2[O-])c1 [EM-9028]	2.6	–	1%	2%	2%	–	25.3	none of these compounds has any activity	–	–	–	–	–
Cc1c(N2C(=O)C(C)(C)N(CCCOc3ccc(-c4cc[n+]([O-])cc4)c(Cl)c3)C2=S)ccc(C#N)c1Cl [EM-9036]	> 100	131%	–	–	–	–	–	–	142 (0.02 mg/rat) %	24 (0.02 mg/rat) %	24 (0.02 mg/rat) %	–	–
Cc1ccc2cc(OCCCN3C(=O)N(c4ccc(C#N)c(C(F)(F)F)c4)C(=O)C3(C)C)ccc2n1 [EM-9090]	33.1	2.5%	11%	0%	1%	–	–	–	–	–	–	–	–
Cc1ccc2cc(OCCCN3C(=O)N(c4ccc(C#N)c(C(F)(F)F)c4)C(=O)C3(C)C)ccc2[n+]1[O-] [EM-9093]	23.1	0.6%	9%	0%	0%	–	–	–	–	–	–	–	–
Cc1c(N2C(=O)N(CCCOc3ccc(-c4ccncc4)c(F)c3)C(C)(C)C2=O)ccc(C#N)c1Cl [EM-9253]	29.9	125%	114±18% and 114 ± 18 (n = 2) %	18 ± 2 (n = 2) %	34 ± 1 (n = 2) %	–	–	–	–	–	–	595	–
Cc1c(N2C(=O)N(CCCOc3ccc(-c4cc[n+]([O-])cc4)c(F)c3)C(C)(C)C2=O)ccc(C#N)c1Cl [EM-9254]	54.8	–	101 ± 5 (n = 3) %	23 ± 1 (n = 3) %	47 ± 6 (n = 3) %	–	38.8	–	–	–	–	–	–
Cc1c(N2C(=O)N(CCCOc3ccc(-c4ccncc4)c(Cl)c3)C(C)(C)C2=O)ccc(C#N)c1Cl [EM-9290]	64.8	–	88±2% and 88 ± 12 (n = 2) %	16 ± 2 (n = 2) %	39 ± 6 (n = 2) %	–	197	–	–	–	–	938	25
